# Experiments:
# Type in all cases: in vivo, mouse
# [1] = test system: C57BL/6 mice with chronic EAE; test: Chronic EAE induced by MOG35–55, clinical score; settings: for mean clinical score: EAE effector phase, p.o. 5 days from day 12, FTY720 1.0 mg/kg
# Experimental: Mice also received i.p. injections of 200 ng of pertussis toxin on days 0 and 2 [32]. Immunized mice were randomly distributed in different groups. […] MPTP is a prodrug which is converted to the neurotoxin 1-methyl-4-phenylpyridinium (MPP+) by MAO-B in vivo.
# Compounds were administered once daily for five consecutive days in two cycles, from day 12 to 16 and from day 19 to 23 post-immunization. […] HPβCD was included to facilitate dissolution. Mice were scored daily for signs of EAE according to the following clinical scoring system: 0, no clinical signs; 0.5, partial loss of tail tonicity; 1, complete loss of tail tonicity; 2, flaccid tail and abnormal gait; 3, complete hind leg paralysis; 4, hind leg paralysis with hind body paresis; 5, hind and foreleg paralysis; and 6, death. Intermediate phenotypes were scored as a half integer. Animals were sacrificed when they kept a score of 5 more than 24 h. Investigators which administered the compounds and scored the animals were blinded to the treatments.
# spinal cord of EAE mice [2] = test: EAE, histopathology of spinal cord (demyelination plaques, infiltration); settings: ORY-2001 0.5 mg/kg; for infiltrating/demyelinating plaques in spinal cord: day 17, FTY720 1.0 mg/kg
# Experimental: Cervical and lumbar spinal cord segments of spinal cords obtained from EAE mice sacrificed on day 17 or 26 post-immunization were divided and processed for inclusion and sectioning in paraffin and for inclusion in an optimal cutting temperature (OCT) compound and future cryosectioning of the samples. Spinal cord segments were immediately fixed with buffered 10% formalin for 48 h, dehydrated and included in paraffin using standard techniques. For a preliminary analysis, transversal sections (4 µm thickness) were stained with Luxol fast blue, cresyl violet, and hematoxylin following the Klüver–Barrera technique and were analyzed for the presence of areas of demyelination and cell infiltration using a light microscope (Leica, DM2000). After hematoxylin/eosin staining in the TMEV model, cell infiltration in the cervical and thoracic spinal cord was evaluated according to the criteria of Mansilla et al.: score 0: no lesion; 1: cellular infiltration only in the meninges; 2: very discrete and superficial infiltrates in the parenchyma; 3: moderate infiltration (less than 25%) in the white matter; 4: severe infiltration (less than 50%) in the white matter; and 5: high severe infiltration (>50%) in the white matter. The remaining spinal cord segments from EAE mice and from mice of the TMEV model were fixed with 4% paraformaldehyde/0.1 M phosphate buffer pH 7.4 for 12 h at 4 °C, cryopreserved in 30% sucrose in PBS for 24 h, embedded in OCT in liquid nitrogen, and stored at −80 °C prior to cryosectioning and immunohistochemistry. 20 and 30 µm-thick transversal cryostat sections from Tissue Tek embedded tissue were obtained from EAE and TMEV samples, respectively, and kept in a cryoprotection solution (30% ethylene glycol, 10 mg/mL polyvinylpyrrolidone-40 (PVP-40), 300 mg/mL sucrose in 60 mM PB) at −20 °C. Mouse #6 from the TMEV + vehicle group died on day 77 post-infection and was therefore not included.
# spleen cells of EAE mice = test: EAE, autoreactive response of spleen cells from treated mice (proliferation, cytokines/chemokines); settings: ORY-2001 0.5 mg/kg; for IFNγ and IL-4 in Con A-stimulated spleen cells: FTY720 1.0 mg/kg
# Experimental: Spleen and draining lymph node (DLN) cells (10^6/mL) collected from EAE mice were stimulated in complete medium (RPMI 1640 containing 10% FBS, 50 µM 2-ME, 2 mM L-glutamine, 100 U/mL penicillin, and 100 µg/mL streptomycin) with 15 µM MOG35–55. After 48 h, cytokine (IL-4, TNF-alpha, IFN-gamma) and chemokine (IP-10 and MCP1) contents in culture supernatants were determined by sandwich ELISAs using capture/biotinylated detection Abs according to the manufacturer’s recommendations. The antibodies used are indicated in Supplementary Materials Table S4. Cell proliferation was evaluated after 72 h by adding 2.5 µCi/mL tritiated-thymidine during the last 8 h of culture and determining cpm incorporation in a Microbeta counter. We used T cell activation with an anti-CD3 […] antibody (1 µg/mL) or ConA (2.5 µg/mL) as controls of unspecific polyclonal stimulation.
# spinal cord of EAE mice [3] = test: EAE, inflammatory mediators in spinal cord protein extracts (ELISA); settings: ORY-2001 0.5 mg/kg; for IFNγ and IP-10 levels in spinal cord / IL-1β levels in spinal cord: disease peak, FTY720 1.0 mg/kg
# From the text: For mechanistic studies in the EAE model, animals were divided into two groups, and samples were collected on day 26 post-immunization (sub-chronic phase), 3 days after the last dose, or on day 17 post-immunization for evaluating the effector phase. For this, mice were euthanized by intracardiac perfusion with saline (0.9%NaCl in H2O MilliQ) after pentobarbital anesthesia (Doletal), and blood samples, spleen, draining lymph nodes (DLNs: cervical, inguinal and axillary), brain, and spinal cord were removed. Serum samples were used for autoantibodies determination. Single-cell suspensions were obtained from spleen or pooled DLNs and used for the determination of cell number and auto-reactive and inflammatory responses, as described later. Brain and spinal segments of the cervical and lumbar regions were prepared separately and processed for RNA isolation, protein extraction, and histopathological analysis. Proteins were extracted from cervical and lumbar segments of spinal cord and brain from EAE mice via homogenization (50 mg tissue/mL) in lysis buffer (50 mM Tris-HCl, pH 7.4, 0.5 mM DTT, and 10 µg/mL proteinase inhibitors PMSF, pepstatin, and leupeptin). Samples were centrifuged (20.000× g, 15 min, 4 °C), and the supernatants were assayed for protein concentration (using Bradford method) and for cytokine/chemokine contents by using specific sandwich ELISAs according to manufacturer’s recommendations (BD Bioscience, Heidelberg, Germany and Peprotech, London, UK). In the TMEV model on day 86 after infection, mice were anesthetized and perfused transcardially, as described above. Spinal cords were obtained via extrusion with saline and prepared for further study.
# [4] = EAE experiment 2, 0.5 or 1 mg/kg ORY-2001
smiles,measurement,setting,value
Nc1nnc(CN[C@@H]2C[C@H]2c2ccc(OCc3ccccc3)cc2)o1 [ORY-2001],mean clinical score,[1]; ORY-2001 0.5 mg/kg,reduced the mean clinical score
same,animals with mild clinical signs (clinical score ≤ 2),"[1]; EAE experiment 1 (severe), p.o. ORY-2001 1 mg/kg",60%
same,effect on disease severity,"[1]; EAE experiment 1 (severe), p.o. ORY-2001 1 mg/kg, ORY-LSD1 180 µg/kg",significantly reduced disease severity
same,animals with severe manifestations/signs of the disease,"[1]; EAE experiment 1 (severe), p.o. ORY-2001 1 mg/kg, ORY-LSD1 180 µg/kg (maximum clinical score ≥ 4.0)",10%
same,mean maximum clinical score,"[1]; EAE experiment 1 (severe), p.o. ORY-2001 1 mg/kg, ORY-LSD1 180 µg/kg, days 12-16 and 19-23",1.8
same,mice with no or only mild clinical signs at the end of the study,[1]; EAE experiment 2,70–80%
same,effect on clinical course / disease severity,"[1]; EAE experiment 2 (mild), p.o. ORY-2001 0.05, 0.5, 1 mg/kg, ORY-LSD1 90, 180 µg/kg, rasagiline 3 mg/kg",significantly reduced disease severity
same,mice with mild clinical signs,[1]; [4],50%
same,mice with no clinical signs,[1]; [4],10%
same,duration of protection after short term treatment,"[1]; EAE experiment 2, 40 days after disease onset",long-lasting protective effect
same,animals with severe signs (maximum clinical score 3.5–6),"[1]; EAE experiment 2, highest dose tested",none
same,relapse,"[1]; EAE experiment 2, lowest dose 0.05 mg/kg",suffered a relapse during the last week of follow-up
same,clinical signs at the peak of the disease,"[1]; EAE sub-chronic phase, to day 26, p.o. ORY-2001 0.5 mg/kg, ORY-LSD1 180 µg/kg",reduced the clinical signs
same,severity of symptoms in treated mice,"[1]; EAE sub-chronic phase, ORY-2001 0.5 mg/kg",displayed only mild symptoms
same,infiltrating/demyelinating plaques in spinal cord,spinal cord of EAE mice [2],reduced the presence of infiltrating/demyelinating plaques in both cervical and lumbar segments
same,plaques with inflammatory infiltrates and areas of demyelination,"spinal cord of EAE mice [2]; day 26, lumbar and cervical, ORY-LSD1 180 µg/kg",significantly reduced the number of plaques
same,IP-10 and MCP-1 production induced by MOG35–55,spleen cells of EAE mice; day 17,significant increase in the production of the pro-inflammatory chemokines IP-10 and MCP-1
same,MOG35–55-induced proliferation of spleen cells,spleen cells of EAE mice; day 17,significantly reduced the MOG35–55-induced proliferation of spleen cells
same,IFNγ and IL-4 in Con A-stimulated spleen cells,spleen cells of EAE mice; day 17,neither affected such cytokines (at the time of study) nor TNF-alpha
same,"TNF-alpha and MCP-1 levels, MOG35–55-specific recall response",spleen cells of EAE mice; day 26,significantly reduced the levels of TNF-alpha and MCP-1
same,"IFNγ, IL-17 and IP-10 levels, MOG35–55-specific recall response","spleen cells of EAE mice; day 26, ORY-LSD1 180 µg/kg","produced equivalent levels of IFNγ, IL-17, and IP-10"
same,IL-4 production by spleen cells,"spleen cells of EAE mice; day 26, ORY-LSD1 180 µg/kg",increased with both treatments
same,MOG35–55- and anti-CD3-stimulated proliferation of spleen lymphocytes,"spleen cells of EAE mice; day 26, ORY-LSD1 180 µg/kg",reduced MOG35–55 but not anti-CD3 -stimulated proliferation
same,"IFNγ, IL-17 and IP-10 levels in spinal cord","spinal cord of EAE mice [3]; day 26, ORY-LSD1 180 µg/kg",no significant changes
same,IL-4 levels in spinal cord,"spinal cord of EAE mice [3]; day 26, ORY-LSD1 180 µg/kg",significant increase in the levels of IL-4
same,IFNγ and IP-10 levels in spinal cord,spinal cord of EAE mice [3],this decrease did not reach significance
same,IL-1β levels in spinal cord,spinal cord of EAE mice [3],significantly reduced the exacerbated levels of IL-1β
"CCCCCCCCc1ccc(CCC(N)(CO)CO)cc1 [FTY720, Fingolimod, reference compound]",mean clinical score,[1]; ORY-2001 0.5 mg/kg,reduced the mean clinical score
same,infiltrating/demyelinating plaques in spinal cord,spinal cord of EAE mice [2],reduced the number and size of demyelinating plaques in cervical but not in lumbar sections
same,IFNγ and IL-4 in Con A-stimulated spleen cells,spleen cells of EAE mice; day 17,reduced the levels of IFNγ and increased IL-4 release
same,IFNγ and IP-10 levels in spinal cord,spinal cord of EAE mice [3],this decrease did not reach significance
same,IL-1β levels in spinal cord,spinal cord of EAE mice [3],showed the same tendency
